Data published in US9914730B2, “Azaquinazoline inhibitors of Atypical protein Kinase C” (Ignyta, Inc., priority 2012, dated 2018).

target: T1, full-length human PKCι (Homo sapiens, UniProt P41743); experiment: PKCι IC50 IMAP assay, full-length PKCι at 150 μM ATP; assay type: biochemical; settings: read-out: IC50 in IMAP assay against full length PKCi at 150 μM ATP
T1 construct: Recombinant, full-length human PKCι expressed in Sf21 insect cells is also commercially available; purchased; host or cells: Sf21 insect cells
T1 sequence (P41743 1-596): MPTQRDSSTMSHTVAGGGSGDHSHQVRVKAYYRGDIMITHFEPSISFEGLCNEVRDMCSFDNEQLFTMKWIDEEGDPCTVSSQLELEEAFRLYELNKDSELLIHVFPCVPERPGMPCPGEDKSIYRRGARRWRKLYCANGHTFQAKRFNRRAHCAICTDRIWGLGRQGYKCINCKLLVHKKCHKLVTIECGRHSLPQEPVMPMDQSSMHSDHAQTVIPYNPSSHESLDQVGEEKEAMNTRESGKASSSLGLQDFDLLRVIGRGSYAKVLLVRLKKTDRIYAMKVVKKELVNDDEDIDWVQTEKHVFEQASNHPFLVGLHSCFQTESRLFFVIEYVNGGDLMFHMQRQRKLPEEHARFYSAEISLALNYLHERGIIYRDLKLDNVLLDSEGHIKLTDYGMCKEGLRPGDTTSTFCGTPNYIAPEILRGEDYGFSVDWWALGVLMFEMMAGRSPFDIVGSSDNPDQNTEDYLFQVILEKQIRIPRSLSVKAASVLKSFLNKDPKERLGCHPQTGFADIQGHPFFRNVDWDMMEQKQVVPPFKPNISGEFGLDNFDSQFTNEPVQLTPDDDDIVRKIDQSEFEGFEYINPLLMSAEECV
Procedure, shortened: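 Phosphorylation of a 5FAM-tagged PKCε pseudopeptide-derived substrate (100 nM) by full-length recombinant human PKCι was monitored by IMAP fluorescence polarisation. ATP was held at 150 μM, five times its apparent KM, with 60 min room-temperature incubation.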

SMILES	IC50 [nM]
N#Cc1ccc(CC(=O)Nc2cc(-c3nc(N[C@@H]4CCNC4)c4ccncc4n3)ccn2)cc1 [Example 349, 2-(4-Cyano-phenyl)-N-{4-[4-((R)-pyrrolidin-3-ylamino)-pyrido[3,4-d]pyrimidin-2-yl]-pyridin-2-yl}-acetamide]	< 100
FC(F)(F)c1ccnc(Nc2cc(-c3nc(N[C@@H]4CCNC4)c4ccncc4n3)ccn2)c1 [Example 350, (R)-Pyrrolidin-3-yl-{2-[2-(4-trifluoromethyl-pyridin-2-ylamino)-pyridin-4-yl]-pyrido[3,4-d]pyrimidin-4-yl}-amine]	< 100
FC(F)(F)c1ccc(Nc2cc(-c3nc(N[C@@H]4CCNC4)c4ccncc4n3)ccn2)nc1 [Example 351, (R)-Pyrrolidin-3-yl-{2-[2-(5-trifluoromethyl-pyridin-2-ylamino)-pyridin-4-yl]-pyrido[3,4-d]pyrimidin-4-yl}-amine]	< 100
COc1cncc2nc(-c3ccnc(Nc4cc(C#N)ccn4)c3)nc(N3CCNCC3)c12 [Example 352, 2-[4-(5-Methoxy-4-piperazin-1-yl-pyrido[3,4-d]pyrimidin-2-yl)-pyridin-2-ylamino]-isonicotinonitrile]	< 100
COc1cncc2nc(-c3ccnc(Nc4ccc(C#N)cn4)c3)nc(N3CCNCC3)c12 [Example 353, 6-[4-(5-Methoxy-4-piperazin-1-yl-pyrido[3,4-d]pyrimidin-2-yl)-pyridin-2-ylamino]-nicotinonitrile]	< 100
COc1cncc2nc(-c3ccnc(Nc4ccccc4)c3)nc(N3CCC(N4CCOCC4)CC3)c12 [Example 354, {4-[5-Methoxy-4-(4-morpholin-4-yl-piperidin-1-yl)-pyrido[3,4-d]pyrimidin-2-yl]-pyridin-2-yl}-phenyl-amine]	1000 to 10000
c1cc2c(N[C@@H]3CCNC3)nc(-c3ccnc(Nc4ccc(N5CCOCC5)cn4)c3)nc2cn1 [Example 357, {2-[2-(5-Morpholin-4-yl-pyridin-2-ylamino)-pyridin-4-yl]-pyrido[3,4-d]pyrimidin-4-yl}-(R)-pyrrolidin-3-yl-amine]	< 100
COc1cc(N2CCOCC2)ccc1Nc1cc(-c2nc(N[C@@H]3CCNC3)c3ccncc3n2)ccn1 [Example 358, {2-[2-(2-Methoxy-4-morpholin-4-yl-phenylamino)-pyridin-4-yl]-pyrido[3,4-d]pyrimidin-4-yl}-(R)-pyrrolidin-3-yl-amine]	100 to 1000
COc1cc(N2CCOCC2)ccc1Nc1cc(-c2nc(N3CCNCC3)c3c(OC)cncc3n2)ccn1 [Example 359, (2-Methoxy-4-morpholin-4-yl-phenyl)-[4-(5-methoxy-4-piperazin-1-yl-pyrido[3,4-d]pyrimidin-2-yl)-pyridin-2-yl]-amine]	100 to 1000
COc1cc(N2CCOCC2)ccc1Nc1cc(-c2nc(N[C@@H]3CCNC3)c3c(OC)cncc3n2)ccn1 [Example 360, {5-Methoxy-2-[2-(2-methoxy-4-morpholin-4-yl-phenylamino)-pyridin-4-yl]-pyrido[3,4-d]pyrimidin-4-yl}-(R)-pyrrolidin-3-yl-amine]	100 to 1000
COc1cncc2nc(-c3ccnc(Nc4ccc(C5CCOCC5)cc4)c3)nc(N[C@@H]3CCNC3)c12 [Example 361, (5-Methoxy-2-{2-[4-(tetrahydro-pyran-4-yl)-phenylamino]-pyridin-4-yl}-pyrido[3,4-d]pyrimidin-4-yl)-(R)-pyrrolidin-3-yl-amine]	< 100
COc1cncc2nc(-c3ccnc(Nc4ccc(C5CCOCC5)cc4)c3)nc(N3CCNCC3)c12 [Example 362, [4-(5-Methoxy-4-piperazin-1-yl-pyrido[3,4-d]pyrimidin-2-yl)-pyridin-2-yl]-[4-(tetrahydro-pyran-4-yl)-phenyl]-amine]	< 100
COc1cncc2nc(-c3ccnc(Nc4ccc(C)cn4)c3)nc(N3CCNCC3)c12 [Example 364, [4-(5-Methoxy-4-piperazin-1-yl-pyrido[3,4-d]pyrimidin-2-yl)-pyridin-2-yl]-(5-methyl-pyridin-2-yl)-amine]	< 100
COc1cncc2nc(-c3ccnc(Nc4ccc(N5CCOCC5)nc4)c3)nc(N3CCNCC3)c12 [Example 375, [4-(5-Methoxy-4-piperazin-1-yl-pyrido[3,4-d]pyrimidin-2-yl)-pyridin-2-yl]-(6-morpholin-4-yl-pyridin-3-yl)-amine]	< 100
c1cncc(Nc2cc(-c3nc(N[C@@H]4CCNC4)c4ccncc4n3)ccn2)c1 [Example 376, {2-[2-(Pyridin-3-ylamino)-pyridin-4-yl]-pyrido[3,4-d]pyrimidin-4-yl}-(R)-pyrrolidin-3-yl-amine]	100 to 1000
COc1cncc2nc(-c3ccnc(Nc4cccnc4)c3)nc(N[C@@H]3CCNC3)c12 [Example 377, {5-Methoxy-2-[2-(pyridin-3-ylamino)-pyridin-4-yl]-pyrido[3,4-d]pyrimidin-4-yl}-(R)-pyrrolidin-3-yl-amine]	100 to 1000

More lines, now with the values ahead:

IC50 [nM]	SMILES
< 100	COc1cncc2nc(-c3ccnc(NC(=O)Cc4ccc(C#N)cc4)c3)nc(N3CCNCC3)c12 [Example 355, 2-(4-Cyano-phenyl)-N-[4-(5-methoxy-4-piperazin-1-yl-pyrido[3,4-d]pyrimidin-2-yl)-pyridin-2-yl]-acetamide]
< 100	COc1cncc2nc(-c3ccnc(NC(=O)Cc4cccc(C#N)c4)c3)nc(N3CCNCC3)c12 [Example 356, 2-(3-Cyano-phenyl)-N-[4-(5-methoxy-4-piperazin-1-yl-pyrido[3,4-d]pyrimidin-2-yl)-pyridin-2-yl]-acetamide]
< 100	COc1cncc2nc(-c3ccnc(Nc4cc(C)ccn4)c3)nc(N3CCNCC3)c12 [Example 363, [4-(5-Methoxy-4-piperazin-1-yl-pyrido[3,4-d]pyrimidin-2-yl)-pyridin-2-yl]-(4-methyl-pyridin-2-yl)-amine]
< 100	COc1cncc2nc(-c3ccnc(Nc4cc(Cl)ccn4)c3)nc(N3CCNCC3)c12 [Example 365, (4-Chloro-pyridin-2-yl)-[4-(5-methoxy-4-piperazin-1-yl-pyrido[3,4-d]pyrimidin-2-yl)-pyridin-2-yl]-amine]
< 100	COc1cncc2nc(-c3ccnc(Nc4ccc(Cl)cn4)c3)nc(N3CCNCC3)c12 [Example 366, (5-Chloro-pyridin-2-yl)-[4-(5-methoxy-4-piperazin-1-yl-pyrido[3,4-d]pyrimidin-2-yl)-pyridin-2-yl]-amine]
< 100	COc1cncc2nc(-c3ccnc(Nc4cc(C(F)(F)F)ccn4)c3)nc(N3CCNCC3)c12 [Example 367, [4-(5-Methoxy-4-piperazin-1-yl-pyrido[3,4-d]pyrimidin-2-yl)-pyridin-2-yl]-(4-trifluoromethyl-pyridin-2-yl)-amine]
< 100	COc1cncc2nc(-c3ccnc(Nc4ccc(C(F)(F)F)cn4)c3)nc(N3CCNCC3)c12 [Example 368, [4-(5-Methoxy-4-piperazin-1-yl-pyrido[3,4-d]pyrimidin-2-yl)-pyridin-2-yl]-(5-trifluoromethyl-pyridin-2-yl)-amine]
< 100	COc1cncc2nc(-c3ccnc(NC(=O)Cc4ccc(Cl)cc4)c3)nc(N3CCNCC3)c12 [Example 369, 2-(4-Chloro-phenyl)-N-[4-(5-methoxy-4-piperazin-1-yl-pyrido[3,4-d]pyrimidin-2-yl)-pyridin-2-yl]-acetamide]
< 100	COc1cncc2nc(-c3ccnc(NC(=O)Cc4cccc(Cl)c4)c3)nc(N3CCNCC3)c12 [Example 370, 2-(3-Chloro-phenyl)-N-[4-(5-methoxy-4-piperazin-1-yl-pyrido[3,4-d]pyrimidin-2-yl)-pyridin-2-yl]-acetamide]
< 100	COc1cncc2nc(-c3ccnc(NC(=O)Cc4ccccc4)c3)nc(N3CCNCC3)c12 [Example 371, N-[4-(5-Methoxy-4-piperazin-1-yl-pyrido[3,4-d]pyrimidin-2-yl)-pyridin-2-yl]-2-phenyl-acetamide]
< 100	COc1cccc(CC(=O)Nc2cc(-c3nc(N4CCNCC4)c4c(OC)cncc4n3)ccn2)c1 [Example 372, 2-(3-Methoxy-phenyl)-N-[4-(5-methoxy-4-piperazin-1-yl-pyrido[3,4-d]pyrimidin-2-yl)-pyridin-2-yl]-acetamide]
< 100	COc1cncc2nc(-c3ccnc(NC(=O)Cc4cccc(C(F)(F)F)c4)c3)nc(N3CCNCC3)c12 [Example 373, N-[4-(5-Methoxy-4-piperazin-1-yl-pyrido[3,4-d]pyrimidin-2-yl)-pyridin-2-yl]-2-(3-trifluoromethyl-phenyl)-acetamide]
< 100	COc1ccc(CC(=O)Nc2cc(-c3nc(N4CCNCC4)c4c(OC)cncc4n3)ccn2)cc1 [Example 374, 2-(4-Methoxy-phenyl)-N-[4-(5-methoxy-4-piperazin-1-yl-pyrido[3,4-d]pyrimidin-2-yl)-pyridin-2-yl]-acetamide]
< 100	COc1cncc2nc(-c3ccnc(Nc4cccnc4)c3)nc(N3CCNCC3)c12 [Example 378, [4-(5-Methoxy-4-piperazin-1-yl-pyrido[3,4-d]pyrimidin-2-yl)-pyridin-2-yl]-pyridin-3-yl-amine]
